This is an account of results in patent US20210246157A1, “CAMPTOTHECIN DERIVATIVES AND PREPARATION METHODS AND APPLICATIONS THEREOF” (priority 2018, published 2021).

Converted amounts (≈) assume the structure as drawn. Counter-ions that a name gives are not always drawn. Like-named read-outs stand apart in the source and are kept apart here.

Data set [1] is described as follows: Solubility test, equilibrium method, UV-visible spectrophotometry. Type of data set: physicochemical. To be noted: for solubility: thermodynamic from solid. The procedure:
The solubility test is carried out by equilibrium method. […] An appropriate amount of the compound is weighed and dissolved in 1 mL of methanol solution to prepare a control solution with a certain concentration (C0). The concentration of test solution is calculated according to the following formula: Cx=(Ax/A0)C0, wherein Cx is concentration of test solution, Ax is absorbance of test solution, C0 is concentration of control solution, and A0 is absorbance of control solution.

A short description of data set [2]: Multi-dose in vivo antitumor activity study, mouse weight (Example 20). The following applies: CPT-11 group 10 mg/kg, caudal vein once every 2 days. Also noted: species or system mice. The procedure:
The drugs are administered through the caudal veins of mice once every 2 days for a total of 7 times.
At the end of the treatment cycle, the orbital venous blood of the mice is collected for later blood routine test, the mice are killed by cervical dislocation method, and tumors are removed immediately and photographed. From day 0, the mice in each group are weighed every three days, and the weights are recorded. The weight average value of each group is calculated, and mouse weight variation curve is drawn according to statistical data. At the end of the treatment cycle, tumors are removed from anesthetized mice immediately and weighted, and the tumor weight of each group is recorded. The tumor inhibition rate (%) is calculated according to the following formula: […]

Another data set relates to SW-480. Kind of data set: Cytotoxicity test (MTT, 72 h). The following applies: Homo sapiens, SW480, 72 h, read-out: 50% Inhibiting Concentration value (IC50).
The next data set has as its system HT-29. Kind of data set: Cytotoxicity test (MTT, 72 h). The following applies: Homo sapiens, HT-29, 72 h, read-out: 50% Inhibiting Concentration value (IC50).
In a further data set the test system is HCT-116. Description: Cytotoxicity test (MTT, 72 h). The following applies: Homo sapiens, HCT-116, 72 h, read-out: 50% Inhibiting Concentration value (IC50).
A further data set deals with A549. Kind of data set: Cytotoxicity test (MTT, 72 h). To be noted: Homo sapiens, A549, 72 h, read-out: 50% Inhibiting Concentration value (IC50).
For the next data set, the system named is H1975. Kind of data set: Cytotoxicity test (MTT, 72 h). To be noted: Homo sapiens, NCI-H1975, 72 h, read-out: 50% Inhibiting Concentration value (IC50).
The subject of the next data set is HepG2. Kind of data set: Cytotoxicity test (MTT, 72 h). To be noted: Homo sapiens, HepG2, 72 h, read-out: 50% Inhibiting Concentration value (IC50).
Another data set relates to BGC-823. Kind of data set: Cytotoxicity test (MTT, 72 h). To be noted: Homo sapiens, BGC-823, 72 h, read-out: 50% Inhibiting Concentration value (IC50).
Another data set has as its system ECA-109. Description: Cytotoxicity test (MTT, 72 h). The following applies: Homo sapiens, ECa-109, 72 h, read-out: 50% Inhibiting Concentration value (IC50).
In the next data set the test system is K562. Description: Cytotoxicity test (MTT, 72 h). To be noted: Homo sapiens, K562, 72 h, read-out: 50% Inhibiting Concentration value (IC50).
The next data set concerns PC3. Description: Cytotoxicity test (MTT, 72 h). To be noted: Homo sapiens, PC-3, 72 h, read-out: 50% Inhibiting Concentration value (IC50).
The test system of the next data set is 143B. Description: Cytotoxicity test (MTT, 72 h). The following applies: Homo sapiens, read-out: 50% Inhibiting Concentration value (IC50).
For a further data set, the system named is MDA-MB-231. Kind of data set: Cytotoxicity test (MTT, 72 h). The following applies: Homo sapiens, MDA-MB-231, 72 h, read-out: 50% Inhibiting Concentration value (IC50).
In another data set the test system is Hela. Description: Cytotoxicity test (MTT, 72 h). The following applies: Homo sapiens, read-out: 50% Inhibiting Concentration value (IC50).
For another data set, the system named is TPC-1. Kind of data set: Cytotoxicity test (MTT, 72 h). To be noted: Homo sapiens, TPC1, 72 h, read-out: 50% Inhibiting Concentration value (IC50).
The next data set deals with SKOV-3. Description: Cytotoxicity test (MTT, 72 h). To be noted: Homo sapiens, SK-OV-3, 72 h, read-out: 50% Inhibiting Concentration value (IC50).
In another data set the test system is PANC-1. Kind of data set: Cytotoxicity test (MTT, 72 h). To be noted: Homo sapiens, PANC-1, 72 h, read-out: 50% Inhibiting Concentration value (IC50).
The test system of the next data set is tumor. To be noted: Santi et al., J Med Chem. 2014; cited from earlier work.
The conditions of data set [3]: common drug solvents and water; Santi et al.; cited from earlier work.

Method for 143B: (§1) In order to investigate the antitumor activities of the compounds, a variety of tumor cell lines for test are selected. Cells at logarithmic growth period are inoculated in a 96-well plate overnight, then drugs with a certain gradient concentrations are added, and incubation is carried out in a cell culture chamber (5% CO2, 37° C.) for 72 h.
Method for A549: as §1
Method for BGC-823: as §1
Method for ECA-109: as §1
Method for H1975: as §1
Method for HCT-116: as §1
Method for HT-29: (§2) Cells at logarithmic growth period are inoculated in a 96-well plate overnight, then drugs with a certain gradient concentrations are added, and incubation is carried out in a cell culture chamber (5% CO2, 37° C.) for 72 h.
Method for Hela: as §1
Method for HepG2: as §1
Method for K562: as §1
Method for MDA-MB-231: as §1
Method for PANC-1: as §2
Method for PC3: as §1
Method for SKOV-3: as §2
Method for SW-480: as §2
Method for TPC-1: as §2

The solubility is the dissolved amount per volume that the medium holds. On to `CCc1c2c(nc3ccc(OC(=O)N4CCC(N5CCCCC5)CC4)cc13)-c1cc3c(c(=O)n1C2)COC(=O)[C@]3(O)CC` [CPT-11, Irinotecan hydrochloride, reference compound], for which the solubility in data set [1] (0.1% aqueous solution of Tween-80, aqueous with cosolvent or surfactant or cyclodextrin, read-out: Solubility in 0.1% Tween-80) is 597 µg/mL; in data set [1] (aqueous buffer, PBS pH 7.4, read-out: Solubility in PBS (pH = 7.4)), 843 µg/mL; in data set [1] (normal saline, saline or isotonic, read-out: Solubility in Normal Saline (NS)), 1220 µg/mL; in data set [1] (water, read-out: Solubility in Water), 6300 µg/mL. Moreover, the “Mouse Weight” value is 16.53 g in data set [2] (day 0); 15.87 g in data set [2] (day 3); 16.10 g in data set [2] (day 6); 16.96 g in data set [2] (day 9); 16.53 g in [2] (day 12); 16.86 g in data set [2] (day 15). In addition, the “Mouse Weight” value in [2] (day 18) is on record as 16.27 g; in data set [2] (day 21), 17.28 g. The IC50 in the data set with SW-480 is 7.38 µM; in the data set with HT-29, 12.8 µM; in the data set with HCT-116, 14.1 µM; in the data set on A549 it was 35 µM; in the data set with H1975 it was 29.1 µM; with HepG2, 22.1 µM. The IC50 in the data set on BGC-823 was 9.15 µM; with ECA-109 it was 11.7 µM; in the data set with K562 it was 10.7 µM; with PC3, 25.1 µM; in the data set on 143B, 20.3 µM; in the data set with MDA-MB-231 it was 14.4 µM. The IC50 turned out to be 12 µM with Hela, 25 µM with TPC-1, 16.5 µM with SKOV-3 and 22 µM with PANC-1.

Take `CCc1c2c(nc3ccc(O)cc13)-c1cc3c(c(=O)n1C2)COC(=O)[C@]3(O)CC` [SN38, reference compound]: the “Solubility in 0.1% Tween-80” value in data set [1] (0.1% aqueous solution of Tween-80) came to 77.4 µg/mL (≈ 197 µM). The “Solubility in PBS (pH = 7.4)” value in [1] (PBS pH 7.4) is listed as 17.6 μg/mL. Further, the “Solubility in Normal Saline (NS)” value in [1] (normal saline) came out at 7.5 µg/mL (≈ 19.1 µM). Also, the “solubility in water, normal saline, PBS (PH 7.4) and 0.1% aqueous solution of Tween-80 (in words)” value in data set [1] (summary of Table 1) is “very low solubility”. Besides, the “Solubility in Water” value in data set [1] (water) was found to be 7.7 µg/mL (≈ 19.6 µM). For the same compound, in the data set on tumor, the “in vitro antitumor activity relative to irinotecan” value is listed as 100-1000 times. For the same compound, in data set [3], the “solubility (in words)” value was “almost insoluble in common drug solvents and water”.
